In patent publication US7192967B1, “Cyclic imide-substituted pyridylalkane, alkene, alkine carboxamides useful as cytostatic and immunosuppressive agents” (Astellas Pharma GmbH, priority 1997, dated 2007):
pIC50: −log10 of the molar value.

Legend:
[1] = system: HepG2 cells derived from a human liver carcinoma; assay: Growth inhibition of HepG2 cells, sulforhodamin-B-method, six days; type: cell-based; details: six days of substance incubation
Experimental: HepG2 cells derived from a human liver carcinoma plated at a density of 20,000 cells/ml in 12-well plastic dishes. Cultivation occurred in Richters IMEM-ZO nutrient medium with 5% foetal calf serum (FCS) in a tissue culture incubator with a gas mixture of 5% CO2 and 95% air at a temperature of 37° C. One day after plating, the culture medium was aspirated from the cells and replaced by fresh medium which contained the respective concentrations of the test substances. For the individual concentrations and the controls without test substances, three-fold batches were done for each. Three days after the beginning of treatment, the medium was again renewed with the test compounds. After six days of substance incubation, the test was ended and the protein amount in the individual wells was determined with the sulforhodamin-B-method (according to P. Skehan et al.: New Colorimetric Cytotoxicity Assay for Anticancer-Drug Screening. J. Natl. Cancer Inst. 82: 1107–1112, 1990). The IC50-values (defined as that concentration in which the cell growth was inhibited by 50%) was taken from the dose-response curves and given as a comparative measurement for the activity of the test compounds.

[2] = system: lymphocytes from the spleen of a Swiss mouse; assay: Immunosuppressing activity on freshly isolated lymphocytes, vital cells by flow-through cytometer after 2 days; type: cell-based; details: vital cells after 2 days
Source text: Many anti-tumor agents have not only a cytotoxic effect on tumor cells, but also on the blood cell system. This leads to a weakening of the immune defence, which can, in turn, be specifically employed to suppress the rejection reaction after an organ transplantation for example. Also use of the main compounds, optionally in combination with other immunological diseases (for example, psoriasis or autoimmune diseases) seems likely. In order to test the possibility for a therapeutic use in illnesses of this type, the substance activity was tested on freshly isolated lymphocytes as follows:
The spleen of a Swiss mouse served as a lymphocyte source. The lymphocyte population was isolated from the spleen cell suspension over a ficoll gradient and taken up in IMEM-ZO culture medium with 0.1% dextran 70,000 and 2% foetal calf serum. […] Subsequently, 10,000 cells per each sample were measured on a flow-through cytometer and the percentage amount of vital cells in the population was determined. By means of the dose-response curves, IC50-values were calculated which were also employed in the following Tables for the characterization of the individual substances: […]

N-[6-(2,5-dioxo-3,4-diphenyl-2,5-dihydropyrrol-1-yl)-hexyl])-3-pyridin-3-yl-acrylamide [substance 58]
pIC50 [1]: 6.30 | pIC50 [2]: 7.22
